# Reference: publication PMC7108868, “Agonist-mediated switching of ion selectivity in TPC2 differentially promotes lysosomal function” (eLife, 2020)
# Like-named read-outs stand apart in the source and are kept apart here.
# Key:
# Type in all cases: cell-based
# [1] = target: T1, TPC2 (Homo sapiens, UniProt Q8NHX9, L11A/L12A); assay: Fura-2 Ca2+ imaging, block of TPC2-A1-N response at […]
# T1 construct: gene TPCN2; hTPC2^L11A/L12A (plasma membrane targeted)
# [2] = target: T2, TPC2 (Homo sapiens, UniProt Q8NHX9); assay: endo-lysosomal patch-clamp (also FLIPR Ca2+ assay, EC50 […])
# T2 construct: gene TPCN2; hTPC2, C-terminal YFP
# [3] = target: T3, TPC2 (Mus musculus, UniProt Q8BWC0); assay: GCaMP Ca2+ imaging and endo-lysosomal patch-clamp, […]; parameters: gene Tpcn2; MmTPC2-GCaMP6s; mTPC2
# [4] = target: T2, TPC2; assay: endo-lysosomal patch-clamp (also FLIPR Ca2+ assay, EC50 […]); remark: listed apart in the source
# [5] = target: T3, TPC2; assay: endo-lysosomal patch-clamp, […], with TPC2 KO control; parameters: gene Tpcn2; mTPC2; endogenous TPC2 in alveolar macrophages
# T1 sequence (Q8NHX9 whole entry L11A/L12A): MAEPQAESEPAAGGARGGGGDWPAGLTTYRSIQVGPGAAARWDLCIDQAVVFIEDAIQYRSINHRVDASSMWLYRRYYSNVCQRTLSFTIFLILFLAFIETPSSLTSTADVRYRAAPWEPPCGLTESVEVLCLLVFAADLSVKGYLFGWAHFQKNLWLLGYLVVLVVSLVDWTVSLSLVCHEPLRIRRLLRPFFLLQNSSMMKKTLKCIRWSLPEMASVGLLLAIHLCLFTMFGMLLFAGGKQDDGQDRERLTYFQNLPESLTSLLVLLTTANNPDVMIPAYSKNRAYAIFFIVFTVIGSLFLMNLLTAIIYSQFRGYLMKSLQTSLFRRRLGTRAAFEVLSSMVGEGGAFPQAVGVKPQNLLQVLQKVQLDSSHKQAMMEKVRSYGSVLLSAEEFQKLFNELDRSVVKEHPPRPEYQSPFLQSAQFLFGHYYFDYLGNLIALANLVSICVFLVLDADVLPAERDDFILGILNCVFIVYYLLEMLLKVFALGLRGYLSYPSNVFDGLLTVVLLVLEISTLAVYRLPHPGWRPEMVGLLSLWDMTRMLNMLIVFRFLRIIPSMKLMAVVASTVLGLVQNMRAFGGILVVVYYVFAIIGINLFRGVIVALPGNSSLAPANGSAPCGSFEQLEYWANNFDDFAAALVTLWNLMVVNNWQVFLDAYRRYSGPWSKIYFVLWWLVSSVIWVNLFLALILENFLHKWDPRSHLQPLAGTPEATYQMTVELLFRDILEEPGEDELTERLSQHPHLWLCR
# T2 sequence (Q8NHX9 whole entry): as the sequence (Q8NHX9 whole entry L11A/L12A) above, with A11L, A12L counted along it
# T3 sequence (Q8BWC0 whole entry): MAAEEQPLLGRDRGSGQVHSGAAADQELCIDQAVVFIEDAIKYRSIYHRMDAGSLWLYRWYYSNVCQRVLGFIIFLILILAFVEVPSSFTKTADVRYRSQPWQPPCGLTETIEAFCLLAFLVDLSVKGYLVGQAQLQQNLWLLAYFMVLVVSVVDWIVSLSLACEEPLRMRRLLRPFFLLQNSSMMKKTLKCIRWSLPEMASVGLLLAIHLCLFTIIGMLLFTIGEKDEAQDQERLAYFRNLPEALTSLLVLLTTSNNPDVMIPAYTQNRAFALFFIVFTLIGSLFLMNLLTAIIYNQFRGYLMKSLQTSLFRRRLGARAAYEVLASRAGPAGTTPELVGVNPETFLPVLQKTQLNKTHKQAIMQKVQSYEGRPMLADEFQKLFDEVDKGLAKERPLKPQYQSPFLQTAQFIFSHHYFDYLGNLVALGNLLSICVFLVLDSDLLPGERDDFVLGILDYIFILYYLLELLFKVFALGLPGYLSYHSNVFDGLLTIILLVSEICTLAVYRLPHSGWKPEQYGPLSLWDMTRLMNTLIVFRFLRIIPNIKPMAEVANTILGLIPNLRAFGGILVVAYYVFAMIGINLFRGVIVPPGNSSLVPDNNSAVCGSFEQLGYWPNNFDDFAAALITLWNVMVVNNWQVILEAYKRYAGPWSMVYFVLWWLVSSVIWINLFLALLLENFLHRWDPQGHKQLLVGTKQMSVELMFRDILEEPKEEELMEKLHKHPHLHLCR
smiles,measurement,setting,value
"OCCN1CCN(CCCN2c3ccccc3Sc3ccc(C(F)(F)F)cc32)CC1 [Flu, fluphenazine]","Fura-2 Ca2+ imaging, block of TPC2-A1-N response at 10 μM",[1],"responses to TPC2-A1-N were selectively blocked by the recently identified TPC2 blockers tetrandrine (Tet), raloxifene (Ral), and fluphenazine (Flu)"
"O=C(c1ccc(OCCN2CCCCC2)cc1)c1c(-c2ccc(O)cc2)sc2cc(O)ccc12 [Ral, raloxifene]","Fura-2 Ca2+ imaging, block of TPC2-A1-N response at 10 μM",[1],"responses to TPC2-A1-N were selectively blocked by the recently identified TPC2 blockers tetrandrine (Tet), raloxifene (Ral), and fluphenazine (Flu)"
"N#CC(C(=O)Nc1ccc(C(F)(F)F)cc1)=C(O)c1cc(Cl)cc(Cl)c1 [TPC2-A1-N, 2-Cyano-3-(3,5-dichlorophenyl)−3-hydroxy-N-(4-(trifluoromethyl)phenyl)acrylamide]",EC50,[2],600 nM
same,"GCaMP Ca2+ imaging and endo-lysosomal patch-clamp, 10 μM",[3],mouse TPC2 fused to GCaMP6 (MmTPC2^GCaMP) confirmed that TPC2-A1-N evoked larger responses than TPC2-A1-P
"Cc1c(C(=O)O)cc(-c2cc(Br)ccc2OC(F)(F)F)n1CC1CCCCC1 [TPC2-A1-P, 5-(5-Bromo-2-(trifluoromethoxy)phenyl)−1-(cyclohexylmethyl)−2-methyl-1H-pyrrole-3-carboxylic acid]",EC50,[4],600 nM
same,"endo-lysosomal patch-clamp, 10 μM, with TPC2 KO control",[5],both TPC2-A1-N and TPC2-A1-P evoked measurable endogenous TPC2-like currents in macrophages from wild-type animals
"COc1ccc2cc1Oc1ccc(cc1)C[C@H]1c3cc(c(OC)cc3CCN1C)Oc1c(OC)c(OC)cc3c1[C@H](C2)N(C)CC3 [Tet, tetrandrine]","Fura-2 Ca2+ imaging, block of TPC2-A1-N response at 10 μM",[1],"responses to TPC2-A1-N were selectively blocked by the recently identified TPC2 blockers tetrandrine (Tet), raloxifene (Ral), and fluphenazine (Flu)"
